Here are results for six compounds from patent publication US12296027B2, “Molecular renal probes for detecting acute kidney injury” (Nanyang Technological University, priority 2019, dated 2025).

Read-outs that look alike come from different tables or passages of the source.

The conditions of series [1]: cited from earlier work.
The nature of series [2]: Commercial assays of serum and urinary kidney injury biomarkers in drug-treated mice. Format: in vivo. On the procedure:
Urine was collected using metabolic cages from drug-treated mice at different timepoints post-treatment of drug. The collected urine samples were centrifuged at 4500 r.p.m. for 8 min and filtered by 0.22 μm syringe filter. MRPs1-3 solutions (30 μM) in PBS buffer (10 mM, pH 7.4) were incubated with the urine (100 μl) at 37° C., followed by fluorescence measurements on fluorescence spectrophotometer after 2 h incubation (9 mice were analysed for each sample). Urinary TFF3, osteopontin, NGAL, β2-Microglobulin, KIM-1, clusterin levels were quantified using ELISA kits according to the manufacturer's protocol (6 mice were analysed for each sample).
Blood was collected from the tail vein in living NCr nude mice under isoflurane anesthesia at t=8, 12, 16, 24, or 48 h post-treatment of cisplatin (20 mg kg^−1 body weight), or at t=24, 48, 72, 96, or 144 h post-treatment of gentamicin (100 mg kg^−1 day^−1 body weight), or at t=2, 8, 16, 24, or 48 h post-treatment of diatrizoate (1000 mg kg^−1 body weight), or saline (0.2 ml) treated mice. The collected blood samples were centrifuged for 20 min at 3500 r.p.m. Serum creatinine, BUN and cystatin C were determined using commercial kits according to the manufacturer's protocol (5 mice were analysed for each sample).
Blood was collected from the tail vein in living mice under isoflurane anesthesia at t=2, 8, 16, 24 or 48 h post-treatment of diatrizoate (1 g kg^−1 body weight), or PBS treated mice, or NAC/DTZ co-treated mice. The collected blood samples were centrifuged for 15 min at 4500 r.p.m. Serum creatinine and BUN were determined using commercial kits according to the manufacturer's protocol (3 mice were analysed for each sample).

Series [3] is described as follows: Determination of GFR by FITC-inulin method in drug-treated mice. Format: in vivo. As to the method:
FITC-inulin (150 mg) was dissolved in 0.9% NaCl (3 ml) at 75° C. and dialysed in 0.9% NaCl (1000 ml) at room temperature for 24 h. Dialysed FITC-inulin (3.74 μl g^−1 […]), or at t=24, 36, 48, 96, or 144 h post-treatment of gentamicin (100 mg kg^−1 day^−1 body weight), or at t=2, 8, 16, 24, or 48 h post-treatment of diatrizoate (1000 mg kg^−1 body weight), or saline (0.2 ml) treated mice. Blood (approximately 20 μl) was collected via saphenous vein at 3, 7, 10, 15, 35, 55, and 75 min post-injection of FITC-inulin, and then centrifuged for 20 min at 3500 r.p.m. Serum sample (10 μl) was diluted with HEPES buffer (40 μl, 500 mM, pH 7.4) and fluorescence was measured using spectramax with excitation at 485 nm and emission at 538 nm. Serum fluorescence data were presented as a two-component exponential decay curve using nonlinear regression (3 mice were analysed for each sample). GFR was calculated according to the equation (Z. Qi, et al., Am. J. Physiol. Renal. Physiol. 2004, 286, F590-596): […], where I is the amount of FITC-inulin delivered by the bolus injection, A and B are the y-intercept values of the two decay rates, and α and β are the decay constants for the distribution and elimination phases, respectively.
FITC-inulin (150 mg) was dissolved in 0.9% NaCl (3 ml), heated at 75° C. and dialysed in 0.9% NaCl (1000 ml) at room temperature for 24 h. Dialysed FITC-inulin (3.74 μl g^−1 body weight) was i.v. injected into living mice at =2, 8, 16, 24, or 48 h post-treatment of diatrizoate (1 g kg^−1 body weight), or PBS (0.2 ml) treated mice, or NAC/DTZ co-treated mice. Blood (approximately 20 μl) was collected via tail vein at 3, 7, 10, 15, 35, 55, and 75 min post-injection of FITC-inulin, and then centrifuged for 15 min at 4500 r.p.m. Serum sample (10 μl) was diluted with PBS buffer (40 μl, 10 mM, pH 7.4) and fluorescence was measured using spectramax with excitation at 485 nm and emission at 538 nm. Serum fluorescence data were presented as a two-component exponential decay curve using nonlinear regression (3 mice were analysed for each sample). GFR was calculated according to the equation: […], where 1 is the amount of FITC-inulin delivered by the bolus injection, A and B are the y-intercept values of the two decay rates, and α and β are the decay constants for the distribution and elimination phases, respectively.

Setting [4] is: at first significant timepoint, initial studies.
Setting [5] is: at first significant timepoint, subsequent studies.

Regarding `CNC(=O)CN(CCN(CCN(CC(=O)[O-])CC(=O)NC)CC(=O)[O-])CC(=O)[O-].[Gd+3]` [Gd-DTPA-BMA], in series [1] (in 24 h, S.D Rats), the Renal clearance efficiency was 95% in 24 h.

Take `CC(=O)N(CC(O)CO)c1c(I)c(C(=O)NCC(O)CO)c(I)c(C(=O)NCC(O)CO)c1I` (stereo not drawn) [Iohexol]: the Renal clearance efficiency in series [1] (in 4 h, S.D rats) is 59.7% in 4 h.

Consider `CNC(=O)c1c(I)c(NC(C)=O)c(I)c(C(=O)O)c1I` [Iothalamate], for which, in series [1] (in 24 h, S.D rat), the Renal clearance efficiency is given as 93.5% ID in 24 h.

For `N.N.[Cl][Pt][Cl]` [cisplatin], in series [2] (mouse, in vivo), the “time of first statistically significant change of urinary NGAL and trefoil factor-3” value came to 48 h; the “time of first statistically significant increase of urinary KIM-1 and clusterin” value is 24 h; the “time of increase of serum Cystatin C” value came to 48 h; the “time of statistically significant change of urinary osteopontin” value came to 72 h. In series [2] (mouse, in vivo), the “time of statistically significant change of urinary β2-microglobulin” value was determined as 72 h; the “time of statistically significant increase of sCr and BUN after treatment” value was 72 h; the “urinary KIM-1 increase” value is given as 1.9 fold; the “urinary NGAL change” value was 2.7 fold. For the same compound, in series [2] (mouse, in vivo), the “urinary NGAL change, alternative value” is given as 2.72 fold; the urinary clusterin increase stood at 4.1 fold; the urinary osteopontin change came out at 2.3 fold; the “urinary trefoil factor-3 change” value was 0.4 fold. Besides, the “urinary β2-microglobulin change” value in series [2] (mouse, in vivo) is 3.9 fold. Besides, the “decrease in GFR at timepoint of sCr/BUN increase” value (“decrease … of sCr/BUN increase” below) in series [3] (mouse, in vivo) was around 50%.

Turning to `CC(=O)Nc1c(I)c(NC(C)=O)c(I)c(C(=O)O)c1I` [diatrizoate], in series [2] (mouse, in vivo), the “BUN relative to control groups” value is recorded as 1.8 fold; the “sCr relative to control groups” value is listed as 1.7 fold; the “time of first statistically significant change of urinary NGAL and trefoil factor-3” value was 24 h; the “time of first statistically significant increase of urinary KIM-1 and clusterin” value was 24 h. Besides, in series [2] (mouse, in vivo), the “time of statistically significant change of urinary osteopontin” value amounted to 24 h; the “time of statistically significant change of urinary β2-microglobulin” value worked out at 48 h; the “time of statistically significant increase of sCr and BUN after treatment” value is reported as 24 h; the “urinary KIM-1 increase” value is given as 3.7 fold. In addition, in series [2] (mouse, in vivo), the “urinary NGAL change” value is given as 2.3 fold; the “urinary NGAL change, alternative value” came out at 2.05 fold; the urinary clusterin increase is given as 3.0 fold; the urinary osteopontin change came to 2.3 fold. For the same compound, in series [2] (mouse, in vivo), the “urinary trefoil factor-3 change” value was determined as 0.5 fold and the “urinary β2-microglobulin change” value is 3.6 fold. Besides, in series [3] (mouse, in vivo), the “decrease in GFR at 24 h post-treatment” value was around 40%, the “decrease in GFR at 48 h post-treatment” value is reported as around 60% and the “decrease … of sCr/BUN increase” value is around 50%.

In the case of gentamicin, in series [2] (at first significant timepoint), the “urinary KIM-1 increase” value is recorded as 2.2 fold; the “urinary NGAL change” value worked out at 2.0 fold; the “urinary NGAL change, alternative value” came out at 1.98 fold; the urinary clusterin increase is reported as 3.5 fold. For the same compound, in series [2] (at first significant timepoint), the urinary osteopontin change stood at 2.3 fold, the “urinary trefoil factor-3 change” value was 0.3 fold and the “urinary β2-microglobulin change” value was determined as 3.2 fold. In series [2] (setting [4]), the BUN increase came to 2.23 fold and the sCr increase came out at 2.82 fold. In series [2] (setting [5]), this compound showed a BUN increase of 2.4 fold and a sCr increase of 2.9 fold. For the same compound, in series [2] (mouse, in vivo), the “time of first statistically significant change of urinary NGAL and trefoil factor-3” value is recorded as 96 h; the “time of first statistically significant increase of urinary KIM-1 and clusterin” value came to 72 h; the “time of statistically significant change of urinary osteopontin” value is listed as 144 h; the “time of statistically significant change of urinary β2-microglobulin” value is 144 h. Besides, the “time of statistically significant increase of sCr and BUN after treatment” value in series [2] (nephrotoxic dose, mice) was determined as 144 h. The “decrease … of sCr/BUN increase” value in series [3] (72 h cisplatin, 144 h gentamicin, 24 h diatrizoate) is given as around 50%.
